From patent US8323656B2, “Antigen determinant of rheumatoid arthritis-specific autoantibody and use thereof” (priority 2007, dated 2012)

Key:
[1] = tested on: RA-specific antibodies (4 anti-CCP2-positive sera); experiment: Indirect (inhibition) ELISA: cross-reactivity of analytes with RA-specific antibodies, immobilized CCP2 as capture antigen; assay type: binding, human; design: Cross-reactivity of antibodies with the named analyte: concentration or dose not given beside the values; conditions: for Inhibition of antibody binding to the immobilized CCP2: FIG. 1 and 2, analyte at 50 mM, 4 sera, result in words; for Cross-reactivity (%) of RA-specific antibody, modified α-amino acid: alkylation + acetylation: acetylated amino acid methyl ester of the amino acid named; for Cross-reactivity (%) of RA-specific antibody, modified α-amino acid: acetylation: acetylated derivative of the amino acid named; for Cross-reactivity of antibodies with the named analyte: the analyte itself is named; for Cross-reactivity (%) of RA-specific antibody, α-amino acid: unmodified α-amino acid, 0 = cross-reactivity less than 1%
Description: A complete set of 21 amino acids and their derivatives were used as analytes to determine if any analyte inhibited the action of the detector antibody in binding to the capture antigen. Determination was made by observation at the single AA level through a series of moving windows of different derivatization. Following this procedure ensures that no antigenic elements of the epitope are missed as long as the possible AA derivatives are available. The analysis began in the fluid phase, wherein initially, the detector antibody was incubated with each of the analytes. After overnight incubation at 4° C., 100 μl of analyte preadsorbed detector antibody per well were added into 96-well microplate which immobilized CCP2 on the surface, and was incubated for 1 hour at room temperature with shaking. […] The reaction was stopped by adding 100 μl of 0.5 M H2SO4 per well and the results were estimated at A450 nm.
The concept of indirect ELISA was based upon an inhibition test between an unknown amount of analyte and a known amount of immobilized antigen for a limited number of detector antibody binding-sites. If the contents of detector antibody and immobilized antigen are kept constant, the distribution of detector antibody between immobilized antigen bound detector antibody and analyte bound detector antibody is dependent upon the amount of sample analyte. The mass of immobilized antigen bound detector antibody is inversely proportional to the amount of analyte bound detector antibody.
(§1) As described in FIG. 1, Amino Acid Profiles for the Antigenic Determinant, ELISA was carried out with sera from Euro-diagnostica (serum 1) and from three patients (serum 2, 3, and 4) with RA to CCP2 positive at various concentrations of different amino acids. […] The horizontal line at 100% represents the control percent binding of the CCP2 to the antibody.
as §1, with “2, Acetylamino” for “1, Amino”, “acetylamino” for “amino”
as §1, with “3, Alkylamino” for “1, Amino”, “alkylamino” for “amino”
as §1, with “4, Acetylamino” for “1, Amino”, “Acid Methyl Ester” for “Acid”, “acetylamino acid methyl esters.” for “amino acids.”

[2] = tested on: RA-specific antibodies (4 anti-CCP2-positive sera); experiment: as above; assay type: binding, human; conditions: unpublished epitope mapping studies; result in words
[3] = methyl esterified (Me) derivative of the amino acid named, 0 = less than 1%

Structure (SMILES) | Cross-reactivity (%) of RA-specific antibody, modified α-amino acid: alkylation + acetylation ([1]; 0 = less than 1%) | Cross-reactivity (%) of RA-specific antibody, modified α-amino acid: acetylation ([1]; 0 = less than 1%) | Cross-reactivity (%) of RA-specific antibody, modified α-amino acid: alkylation [1, 3] | Cross-reactivity of antibodies with the named analyte [1] | Cross-reactivity (%) of RA-specific antibody, α-amino acid [1] | also measured
NC(=O)NCCC[C@H](N)C(=O)O [Citrulline] | 100% | 74% | ^Me81% | zero | 0% | Inhibition of antibody binding to the immobilized CCP2 [1]: limited capability to inhibit; Cross-reactivity (%) of RA-specific antibody, modified α-amino acid: alkylation ([1]; butyl esterified (Be) derivative): ^Be124%; Cross-reactivity (%) of RA-specific antibody, modified α-amino acid: alkylation ([1]; ethyl esterified (Ee) derivative): ^Ee72%; Cross-reactivity (%) of RA-specific antibody, modified α-amino acid: alkylation ([1]; propyl esterified (Pe) derivative): ^Pe115%; Binding of RA-specific antibodies [2]: does not bind
COC(=O)[C@@H](N)CCCN=C(N)N [Arg-Me] | – | – | – | 6% | – | –
COC(=O)[C@H](CCCNC(=N)N)NC(C)=O [acetyl-Arg-Me] | – | – | – | 13% | – | –
N[C@@H](CS)C(=O)O [Cysteine] | 57% | 48% | ^Me50% | 0% | 0% | Inhibition of antibody binding to the immobilized CCP2 [1]: limited capability to inhibit
CSCCC(NC(C)=O)C(=O)O (centres unmarked) [acetyl-Met] | – | – | – | 0% | – | –
COC(=O)[C@H](CO)NC(C)=O [acetyl-Ser-Me] | – | – | – | 0% | – | –
N[C@@H](CC(=O)O)C(=O)O [Aspartic acid] | 0% | 0% | ^Me0% | – | 0% | –
C[C@H](N)C(=O)O [Alanine] | 0% | 0% | ^Me0% | – | 0% | –
CCCCOC(=O)[C@@H](N)CCCNC(N)=O [Cit-Be] | – | – | – | 124% | – | –
N[C@@H](Cc1ccccc1)C(=O)O [Phenylalanine] | 0% | 0% | ^Me0% | – | 0% | –
CC[C@H](C)[C@H](N)C(=O)O [Isoleucine] | 0% | 0% | ^Me0% | – | 0% | –
COC(=O)[C@H](CCSC)NC(C)=O [acetyl-Met-Me] | – | – | – | 0% | – | –
CCCOC(=O)C(N)CCCNC(N)=O (centres unmarked) [Cit-Pe] | – | – | – | 115% | – | –
CC(=O)N[C@@H](CCCNC(N)=O)C(=O)O [acetyl-Cit] | – | – | – | 74% | – | Inhibition of antibody binding to the immobilized CCP2 [1]: strong inhibition
O=C(O)[C@@H]1CCCN1 [Proline] | 0% | 0% | ^Me0% | – | 0% | –
CC(=O)N[C@@H](CS)C(=O)O [acetyl-Cys] | – | – | – | 50% | – | Inhibition of antibody binding to the immobilized CCP2 [1]: strong inhibition
COC(=O)[C@H](CS)NC(C)=O [acetyl-Cys-Me] | – | – | – | 57% | – | –
COC(=O)[C@@H](N)CO [Ser-Me] | – | – | – | 0% | – | –
CC(C)C[C@H](N)C(=O)O [Leucine] | 0% | 0% | ^Me0% | – | 0% | –
COC(=O)C(CCCNC(N)=O)NC(C)=O (centres unmarked) [acetyl-Cit-Me] | – | – | – | 100% | – | –
NC(=O)CC[C@H](N)C(=O)O [Glutamine] | 0% | 0% | ^Me0% | – | 0% | –
COC(=O)C(N)CCCNC(N)=O (centres unmarked) [Cit-Me] | – | – | – | 81% | – | –
